Results as given in ChEMBL document CHEMBL4308841, “Synthesis, in vitro antiproliferative activity, and kinase inhibitory effects of pyrazole-containing diarylureas and diarylamides” (Eur J Med Chem, 2018).

Assays:
MOLT-4 = experiment: Growth inhibition of human MOLT4 cells incubated for 48 hrs by sulforhodamine B assay; type: functional, cell-based; conditions: MOLT-4, 48 h
HCC 2998 = experiment: Growth inhibition of human HCC2998 cells incubated for 48 hrs by sulforhodamine B assay; type: functional, cell-based; conditions: HCC 2998, 48 h
SNB-19 = experiment: Growth inhibition of human SNB19 cells incubated for 48 hrs by sulforhodamine B assay; type: functional, cell-based; conditions: SNB-19, 48 h
UACC-257 = experiment: Growth inhibition of human UACC257 cells incubated for 48 hrs by sulforhodamine B assay; type: functional, cell-based; conditions: UACC-257, 48 h
PC-3 = experiment: Growth inhibition of human PC3 cells incubated for 48 hrs by sulforhodamine B assay; type: functional, cell-based; conditions: PC-3, 48 h
MDA-MB-231 [1] = experiment: Growth inhibition of human MDA-MB-231 cells incubated for 48 hrs by sulforhodamine B assay; type: functional, cell-based; conditions: MDA-MB-231, 48 h
HL-60(TB) = experiment: Growth inhibition of human HL-60(TB) cells assessed as cell growth at 0.01 uM incubated for 48 hrs by sulforhodamine B assay relative to control; type: functional; conditions: HL-60, 48 h, read-out: Activity
NCI-H322M [2] = experiment: Growth inhibition of human NCI-H322M cells assessed as cell growth at 0.01 uM incubated for 48 hrs by sulforhodamine B assay relative to control; type: functional; conditions: read-out: Activity
NCI-H460 = experiment: Growth inhibition of human NCI-H460 cells assessed as cell growth at 0.01 uM incubated for 48 hrs by sulforhodamine B assay relative to control; type: functional; conditions: NCI-H460, 48 h, read-out: Activity
KM12 [3] = experiment: Growth inhibition of human KM12 cells assessed as cell growth at 0.01 uM incubated for 48 hrs by sulforhodamine B assay relative to control; type: functional; conditions: KM12, 48 h, read-out: Activity
SNB-75 = experiment: Growth inhibition of human SNB75 cells assessed as cell growth at 0.01 uM incubated for 48 hrs by sulforhodamine B assay relative to control; type: functional; conditions: SNB-75, 48 h, read-out: Activity
MDA-MB-435 = experiment: Growth inhibition of human MDA-MB-435 cells assessed as cell growth at 0.01 uM incubated for 48 hrs by sulforhodamine B assay relative to control; type: functional; conditions: MDA-MB-435, 48 h, read-out: Activity
DU-145 = experiment: Growth inhibition of human DU145 cells assessed as cell growth at 0.01 uM incubated for 48 hrs by sulforhodamine B assay relative to control; type: functional; conditions: DU-145, 48 h, read-out: Activity
NCI-H322M [4] = experiment: Growth inhibition of human NCI-H322M cells assessed as cell growth at 0.1 uM incubated for 48 hrs by sulforhodamine B assay relative to control; type: functional; conditions: read-out: Activity
NCI-H522 = experiment: Growth inhibition of human NCI-H522 cells assessed as cell growth at 0.1 uM incubated for 48 hrs by sulforhodamine B assay relative to control; type: functional; conditions: NCI-H522, 48 h, read-out: Activity
KM12 [5] = experiment: Growth inhibition of human KM12 cells assessed as cell growth at 0.1 uM incubated for 48 hrs by sulforhodamine B assay relative to control; type: functional; conditions: KM12, 48 h, read-out: Activity
M14 = experiment: Growth inhibition of human M14 cells assessed as cell growth at 0.1 uM incubated for 48 hrs by sulforhodamine B assay relative to control; type: functional; conditions: M14, 48 h, read-out: Activity
CAKI-1 = experiment: Growth inhibition of human Caki1 cells assessed as cell growth at 0.1 uM incubated for 48 hrs by sulforhodamine B assay relative to control; type: functional; conditions: CAKI-1, 48 h, read-out: Activity
CCRF-CEM = experiment: Growth inhibition of human CCRF-CEM cells assessed as cell growth at 1 uM incubated for 48 hrs by sulforhodamine B assay relative to control; type: functional; conditions: read-out: Activity
NCI/ADR-RES = experiment: Growth inhibition of human NCI/ADR-RES cells assessed as cell growth at 1 uM incubated for 48 hrs by sulforhodamine B assay relative to control; type: functional; conditions: read-out: Activity
SN12C = experiment: Growth inhibition of human SN12C cells assessed as cell growth at 1 uM incubated for 48 hrs by sulforhodamine B assay relative to control; type: functional; conditions: read-out: Activity
MCF7 = experiment: Growth inhibition of human MCF7 cells assessed as cell growth at 1 uM incubated for 48 hrs by sulforhodamine B assay relative to control; type: functional; conditions: MCF7, 48 h, read-out: Activity
NCI-H226 = experiment: Growth inhibition of human NCI-H226 cells assessed as cell growth at 100 uM incubated for 48 hrs by sulforhodamine B assay relative to control; type: functional; conditions: NCI-H226, 48 h, read-out: Activity
SF-539 = experiment: Growth inhibition of human SF539 cells assessed as cell growth at 100 uM incubated for 48 hrs by sulforhodamine B assay relative to control; type: functional; conditions: SF-539, 48 h, read-out: Activity
SK-MEL-2 = experiment: Growth inhibition of human SK-MEL-2 cells assessed as cell growth at 100 uM incubated for 48 hrs by sulforhodamine B assay relative to control; type: functional; conditions: SK-MEL-2, 48 h, read-out: Activity
SK-MEL-5 = experiment: Growth inhibition of human SK-MEL-5 cells assessed as cell growth at 100 uM incubated for 48 hrs by sulforhodamine B assay relative to control; type: functional; conditions: SK-MEL-5, 48 h, read-out: Activity
MDA-MB-231 [6] = experiment: Growth inhibition of human MDA-MB-231 cells assessed as cell growth at 100 uM incubated for 48 hrs by sulforhodamine B assay relative to control; type: functional; conditions: MDA-MB-231, 48 h, read-out: Activity
MDA-MB-468 = experiment: Growth inhibition of human MDA-MB-468 cells assessed as cell growth at 100 uM incubated for 48 hrs by sulforhodamine B assay relative to control; type: functional; conditions: MDA-MB-468, 48 h, read-out: Activity
[7] = read-out: LC50 (the source's name)
[8] = read-out: pLC50 (the source's name) (converted)

## COc1cc(Cl)cc(-c2nn(-c3cccc(NC(=O)c4ccc(N5CCOCC5)c(C(F)(F)F)c4)c3)cc2-c2ccncc2)c1
MOLT-4; read-out: GI50
  GI50: 5.49 µM
MOLT-4; [7]
  CC50: > 100 µM
MOLT-4; read-out: TGI
  TGI: > 100 µM
MOLT-4; read-out: pGI50 (converted)
  GI50: 5.5 µM
MOLT-4; [8]
  CC50: > 100 µM
MOLT-4; read-out: pTGI (converted)
  TGI: > 100 µM
HCC 2998; read-out: GI50
  GI50: 5.06 µM
HCC 2998; [7]
  CC50: > 100 µM
HCC 2998; read-out: TGI
  TGI: 74.7 µM
HCC 2998; read-out: pGI50 (converted)
  GI50: 6.03 µM
HCC 2998; [8]
  CC50: > 100 µM
HCC 2998; read-out: pTGI (converted)
  TGI: 74.1 µM
SNB-19; read-out: GI50
  GI50: > 100 µM
SNB-19; [7]
  CC50: > 100 µM
SNB-19; read-out: TGI
  TGI: > 100 µM
SNB-19; read-out: pGI50 (converted)
  GI50: > 100 µM
SNB-19; [8]
  CC50: > 100 µM
SNB-19; read-out: pTGI (converted)
  TGI: > 100 µM
UACC-257; read-out: GI50
  GI50: 2.17 µM
UACC-257; [7]
  CC50: > 100 µM
UACC-257; read-out: TGI
  TGI: 69.1 µM
UACC-257; read-out: pGI50 (converted)
  GI50: 21.9 µM
UACC-257; [8]
  CC50: > 100 µM
UACC-257; read-out: pTGI (converted)
  TGI: 69.2 µM
PC-3
  IC50: 3.3 µM
PC-3; read-out: GI50
  GI50: 3.3 µM
PC-3; [7]
  CC50: > 100 µM
PC-3; read-out: TGI
  TGI: > 100 µM
PC-3; read-out: pGI50 (converted)
  GI50: 3.31 µM
PC-3; [8]
  CC50: > 100 µM
PC-3; read-out: pTGI (converted)
  TGI: > 100 µM
MDA-MB-231 [1]; read-out: GI50
  GI50: 2.53 µM
MDA-MB-231 [1]; [7]
  CC50: > 100 µM
MDA-MB-231 [1]; read-out: TGI
  TGI: 32.4 µM
MDA-MB-231 [1]; read-out: pGI50 (converted)
  GI50: 2.82 µM
MDA-MB-231 [1]; [8]
  CC50: > 100 µM
MDA-MB-231 [1]; read-out: pTGI (converted)
  TGI: 32.4 µM
HL-60(TB)
  growth at 0.01 µM: 94%
NCI-H322M [2]
  growth at 0.01 µM: 97%
NCI-H460
  growth at 0.01 µM: 102%
KM12 [3]
  growth at 0.01 µM: 96%
SNB-75
  growth at 0.01 µM: 58%
MDA-MB-435
  growth at 0.01 µM: 97%
DU-145
  growth at 0.01 µM: 108%
NCI-H322M [4]
  growth at 0.1 µM: 94%
NCI-H522
  growth at 0.1 µM: 81%
KM12 [5]
  growth at 0.1 µM: 95%
M14
  growth at 0.1 µM: 96%
CAKI-1
  growth at 0.1 µM: 100%
CCRF-CEM
  growth at 1 µM: 56%
NCI/ADR-RES
  growth at 1 µM: 92%
SN12C
  growth at 1 µM: 89%
MCF7
  growth at 1 µM: 90%
NCI-H226
  growth at 100 µM: 50%
SF-539
  growth at 100 µM: 2%
SK-MEL-2
  growth at 100 µM: 15%
SK-MEL-5
  growth at 100 µM: 21%
MDA-MB-231 [6]
  growth at 100 µM: -10%
MDA-MB-468
  growth at 100 µM: 17%
